Experimental data: patent US8748105B2, “Method for selecting a candidate drug compound” (Pepscan Systems B.V., priority 2003, dated 2014)
Starred links: 1 amine or outer side, 2 acyl side, 3 side chain; linkers in the order of their positions; H or OH if unused. Positions of bridges follow the written chain, without caps; N, C: chain ends. T2 = dibromobenzene scaffold (1,3-bis(bromomethyl)benzene, m-dibromoxylene) forming thioether links to the two Cys; resin = solid-support resin (cross-linked polystyrene) to which the C-terminal amino acid is attached; mXylylene = c1cc(C[*:1])cc(C[*:2])c1

Experiments:
anti-FSH-β mAb 2 = assay: Loopscan: sandwich ELISA of solid-phase cyclized or linear 12-mer FSH β3-loop peptides; type: binding; conditions: solid-phase 12-mer peptides; mAb 2 up to 10 μg/mL
Experimental: FIG. 12: ELISA results of the binding of anti-FSH monoclonal antibody 2 (10 μg/mL) in 3 μL miniwells containing overlapping a) cyclized (with m-dibromoxylene) and b) linear 12-mer peptides of the β3-loop of FSH-beta; Sequence of binding peptide: (AA68-AA79) Ac-CRVPGAAHHADSLC-resin (SEQ ID NO:5).
The formation of peptide loops via reaction of a linear peptide containing two free sulfhydryl groups with 1,3-bis(bromomethyl)benzene scaffold was also carried out on a polypropylene surface grafted with polyacrylic acid (6% solution containing CuSO4, irradiation using γ-radiation at a dose of 12 kGy) and functionalized with amino groups via coupling with t-butyloxycarbonyl-hexamethylene diamine (Boc-HMDA) using dicyclohexylcarbodiimide (DCC) with N-hydroxybenzotriazole (HOBt) and subsequent deprotection of the Boc-groups using trifluoroacetic acid (TFA). Standard Fmoc peptide chemistry was used to synthesize a set of overlapping linear peptides of 14 amino acid long peptides corresponding to the β3-loop of FSH in separate microwells of 3 μL each using our previously developed minicard format. Each peptide was synthesized with a Cys-residue in position 1, followed by the overlapping sequences of the FSH β3-loop (2-13, 3-14, 4-15, etc.) followed by another Cys-residue in the final position. […]

[1] = molecular target: mAb 2 (anti-FSHβ monoclonal antibody); assay: Binding of looped peptide mimics of FSH-β to anti-FSH-β monoclonal antibody mAb 2 (Kd)
Source text: We used the synthetic strategy for structural fixation of linear peptides as outlined above. We tested the capacity of these small peptide-based beta-FSH mimics to bind to a number of different monoclonal antibodies specific for beta-FSH.

[2] = molecular target: mAb 3468 (anti-beta-CG monoclonal antibody); assay: Binding of beta-CG mimics (T4 double-loop constructs) to monoclonal antibody 3468 (Kd)
Source text: For the inhibition of the specific interaction with hCG and its receptor there is a need for compounds which structurally mimic the hormone. […] It is, therefore, likely that binding of beta-CG to the receptor also involves a discontinuous binding on the hormone. Provided is the design and synthesis of small peptide-based beta-CG mimics that strongly bind to monoclonal antibody 3468. We used the synthetic strategy for structural fixation of linear peptides as outline above.
The beta-CG mimics are advantageously used for the production of antisera that react specifically with hCG.

[3] = molecular target: mAb 1 (monoclonal antibody specific for beta-FSH); assay: Binding of beta-FSH mimics (T4 double-loop constructs) to beta-FSH-specific monoclonal antibody mAb 1 (Kd)
Source text: For the inhibition of the specific interaction with beta-FSH and its receptor, there is a need for structural mimics of the hormone. Although there is no crystallographic structure describing the interaction of beta-FSH with its receptor, it is very likely that this binding site is discontinuous in nature. We designed and synthesized a number of double-loop peptide construct on a tetrabromo-(T4)scaffold that could be used as beta-FSH mimics. We used the synthetic strategy for structural fixation of linear peptides as outlined above. We tested the capacity of these small peptide-based beta-FSH mimics to bind to a number of different monoclonal antibodies specific for beta-FSH. […] Furthermore, the beta-FSH mimics can be used successfully for the production of antisera that react specifically with beta-FSH.

binding to anti-FSH-β mAb 2 in sandwich ELISA (in words) (anti-FSH-β mAb 2)	Kd [1] [µM]	Kd [2] [µM]	Kd [3] [µM]	Substance
binds strongly	–	–	–	Ac-CRVPGAAHHADSLC-resin (linker 1-14 via mXylylene (inferred); also: C-terminus resin-bound) [68-79]
–	2.5	15	0.27	c-T2-[Ac-CRVPGAAHHADSLC-NH2] (linker 1-14 via T2 (inferred)) [compound 1]
